# Experimental data reported in US10358449B2, “Xanthine derivative” (priority 2015, dated 2019).
# Where a name gives a salt, the structure may show the parent alone. Read-outs that look alike come from different tables or passages of the source. Marks after values point to notes of the source that are not given here.
# How the values were obtained:
# [1] = biological target: humanized recombinant DPP-IV (Homo sapiens (Human), UniProt P27487); assay: DPP-IV activity inhibition test in vitro (DPPIV-Glo luminescence); type: biochemical; conditions: DPP-IV, Table 1; read-out: IC50
# Sequence of humanized recombinant DPP-IV (P27487 whole entry): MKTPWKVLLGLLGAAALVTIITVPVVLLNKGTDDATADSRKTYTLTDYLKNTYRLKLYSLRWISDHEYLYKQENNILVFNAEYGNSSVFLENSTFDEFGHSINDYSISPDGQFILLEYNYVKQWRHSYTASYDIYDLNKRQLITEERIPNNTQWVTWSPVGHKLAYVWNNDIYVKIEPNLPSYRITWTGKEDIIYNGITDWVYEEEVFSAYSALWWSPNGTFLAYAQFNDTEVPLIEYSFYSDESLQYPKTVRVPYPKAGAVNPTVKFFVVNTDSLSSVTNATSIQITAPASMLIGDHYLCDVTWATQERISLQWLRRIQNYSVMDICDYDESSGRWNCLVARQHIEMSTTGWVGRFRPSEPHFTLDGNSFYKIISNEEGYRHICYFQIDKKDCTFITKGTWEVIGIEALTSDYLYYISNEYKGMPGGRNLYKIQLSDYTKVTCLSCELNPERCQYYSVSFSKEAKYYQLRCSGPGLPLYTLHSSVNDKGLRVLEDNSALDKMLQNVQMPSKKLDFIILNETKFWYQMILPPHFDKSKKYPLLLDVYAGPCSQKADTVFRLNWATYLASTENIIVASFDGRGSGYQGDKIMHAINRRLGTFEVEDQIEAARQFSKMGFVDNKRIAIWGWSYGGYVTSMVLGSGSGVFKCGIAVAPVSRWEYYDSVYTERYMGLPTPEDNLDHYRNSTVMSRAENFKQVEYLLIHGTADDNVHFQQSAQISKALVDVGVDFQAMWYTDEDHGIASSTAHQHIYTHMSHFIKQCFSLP
# Procedure: (1) DPP-IV Activity Inhibition Tests In Vitro
# DPP-IV could hydrolyze Gly-Pro-Aminoluciferin at room temperature to generate Aminoluciferin, which could produce “glow type” luminescent signals in a luciferase reaction system provided by a DPPIV-Glo™ protease test kit, and the strength of the luminescent signals was in direct proportion to the enzyme activity of DPP-IV.
# 2.1 humanized recombinant DPP-IV: SIGMA product, article number D3446-10UG.
# 2.2 DPPIV-Glo™ protease detection kit: Promega product, article number G8351.
# 3.2 Diluting dipeptidyl peptidase IV (Sigma) to 0.2 ng/ml solution with 10 mM Tris-HCl (pH 8.0), adding the samples to be detected in, per well 25 μl. […] Experimental Results
# [2] = CD-1 mouse, 5 mg/kg, oral administration; cited from earlier work
# [3] = tested on: diabetic mice (B6.BKS(D)-Leprdb/JNju); assay: Glucose tolerance test of diabetic mice (Table 5); type: in vivo, mouse; parameters: AUC0-120 min: unit not given beside the values
# Procedure: (§1) 2. Experimental method: normal mice, obese mice and diabetic mice were used for studying glucose tolerance tests Experimental process of OGTT (Oral Glucose Tolerance Test): fasting for 6 hours before the test begins, 60 min after drug administration, glucose was administrated by gavage (drug concentration 0.6 mg/ml, administration volume 5 ml/kg) (2 g/kg glucose was administrated to diabetic mice; 2 g/kg glucose was administrated to obese mice; and 5 g/kg glucose was administrated to normal mice), blood glucose values at 0 min, 15 min, 30 min, 45 min, 60 min and 120 min are respectively determined after glucose administration, […]
# [4] = tested on: obese mice (B6.Cg-Lepob/JNju); assay: Glucose tolerance test of obese mice; type: in vivo, mouse; parameters: AUC0-120 min: unit not given beside the values
# Procedure: as §1
# [5] = man, 5 mg/subject; cited from earlier work
# normal mice (C57BL/6J) = assay: Oral glucose tolerance test of normal mice; type: in vivo, mouse; parameters: AUC0-120 min: unit not given beside the values
# Procedure: as §1
structure (smiles),measurement,setting,value
"CC#CCn1c(N2CCC[C@@H](N)C2)nc2c1c(=O)n(Cc1ncccc1C(=O)OC)c(=O)n2C [Compound I-4, 1-[(3-methyl formate-pyridine-2-yl)methyl]-3-methyl-7-(2-butyne-1-yl)-8-[(R)-3-amino-piperidine-1-yl]-xanthine]",IC50,[1],4.8 nM
"CC#CCn1c(N2CCC[C@@H](N)C2)nc2c1c(=O)n(Cc1cc(F)c(F)cc1C#N)c(=O)n2C [Compound I-2, 1-[(4,5-difluoro-benzonitrile-2-yl)methyl]-3-methyl-7-(2-butyne-1-yl)-8-[(R)-3-amino-piperidine-1-yl]-xanthine]",IC50,[1],2.1 nM
"CC#CCn1c(N2CCC[C@@H](N)C2)nc2c1c(=O)n(Cc1cccc(F)c1C#N)c(=O)n2C [Compound I-1, 1-[(6-fluorine-benzonitrile-2-yl)methyl]-3-methyl-7-(2-butyne-1-yl)-8-[(R)-3-amino-piperidine-1-yl]-xanthine]",IC50,[1],0.21 nM
"CC#CCn1c(N2CCC[C@@H](N)C2)nc2c1c(=O)n(Cc1nc(C)c3ccccc3n1)c(=O)n2C [Linagliptin, linagliptin, reference compound]",bioavailability (F),[2],18.4%
same,Blood glucose concentration 0 min,"[3]; diabetic mice B6.BKS(D)-Leprdb/JNju, drug at -60 min (0.6 mg/ml, 5 ml/kg), 2 g/kg glucose at 0 min",12.09 mmol/L
same,Blood glucose concentration 15 min,"[3]; diabetic mice, 15 min after glucose",29.98* mmol/L
same,Blood glucose concentration 30 min,"[3]; diabetic mice, 30 min after glucose",20.15*** mmol/L
same,Blood glucose concentration 45 min,"[3]; diabetic mice, 45 min after glucose",16.60*** mmol/L
same,Blood glucose concentration 60 min,"[3]; diabetic mice, 60 min after glucose",15.83** mmol/L
same,Blood glucose concentration 120 min,"[3]; diabetic mice, 120 min after glucose",10.05* mmol/L
same,AUC0-120 min,"[3]; diabetic mice, blood glucose AUC",1987**
same,Blood glucose concentration 0 min,"[4]; obese mice B6.Cg-Lepob/JNju, drug at -60 min (0.6 mg/ml, 5 ml/kg), 2 g/kg glucose at 0 min",10.95 mmol/L
same,Blood glucose concentration 15 min,"[4]; obese mice, 15 min after glucose",31.73 mmol/L
same,Blood glucose concentration 30 min,"[4]; obese mice, 30 min after glucose",27.98 mmol/L
same,Blood glucose concentration 45 min,"[4]; obese mice, 45 min after glucose",20.50 mmol/L
same,Blood glucose concentration 60 min,"[4]; obese mice, 60 min after glucose",16.00* mmol/L
same,Blood glucose concentration 120 min,"[4]; obese mice, 120 min after glucose",11.50 mmol/L
same,AUC0-120 min,"[4]; obese mice, blood glucose AUC",2230
same,bioavailability (F),[5],30%
same,Blood glucose concentration 0 min,"normal mice (C57BL/6J); normal mice C57BL/6J, drug at -60 min (0.6 mg/ml, 5 ml/kg), 5 g/kg glucose at 0 min",8.64* mmol/L
same,Blood glucose concentration 15 min,"normal mice (C57BL/6J); normal mice, 15 min after glucose",14.7*** mmol/L
same,Blood glucose concentration 30 min,"normal mice (C57BL/6J); normal mice, 30 min after glucose",10.5*** mmol/L
same,Blood glucose concentration 45 min,"normal mice (C57BL/6J); normal mice, 45 min after glucose",9.5*** mmol/L
same,Blood glucose concentration 60 min,"normal mice (C57BL/6J); normal mice, 60 min after glucose",10.14*** mmol/L
same,Blood glucose concentration 120 min,"normal mice (C57BL/6J); normal mice, 120 min after glucose",7.72 mmol/L
same,AUC0-120 min,"normal mice (C57BL/6J); normal mice, blood glucose AUC",1198***
